From PMC3382599, “The Anti-Tumor Effect of A3 Adenosine Receptors Is Potentiated by Pulsed Electromagnetic Fields in Cultured Neural Cancer Cells” (PLoS ONE, 2012)

Biological target: T1, A2BARs (rat cortical neurons) (Rattus norvegicus, UniProt P29276)
T1 construct: gene Adora2b; native receptor in membranes of primary cortical neurons from day-18 rat embryos
T1 sequence (P29276 1-332): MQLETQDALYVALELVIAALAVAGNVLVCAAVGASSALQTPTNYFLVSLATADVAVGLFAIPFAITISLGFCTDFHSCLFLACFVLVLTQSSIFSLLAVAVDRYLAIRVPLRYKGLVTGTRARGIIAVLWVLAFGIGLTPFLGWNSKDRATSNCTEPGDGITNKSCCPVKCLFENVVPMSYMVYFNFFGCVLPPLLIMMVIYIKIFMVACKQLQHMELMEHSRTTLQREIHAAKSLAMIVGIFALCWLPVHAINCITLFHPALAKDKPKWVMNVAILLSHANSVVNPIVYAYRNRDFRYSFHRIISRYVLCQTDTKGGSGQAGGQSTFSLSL
Assay: radioligand saturation binding, membranes
Conditions: rat cortical neuron membranes, no PEMF; labelled compound
From the text: radioligand saturation binding, membranes on A2BARs (rat cortical neurons)

- Kd: 1.52 ± 0.11 nM
Structure (SMILES): CCCn1c(=O)c2[nH]c(-c3cc(OCC(=O)Nc4ccc5c(c4)OCO5)nn3C)nc2n(CCC)c1=O [[3H]-MRE 2029F20, [^3H]-N-benzo [1], [3]dioxol-5-yl-2-[5-(2,6-dioxo-1,3-dipropyl-2,3,6,7-tetrahydro-1H-purin-8-yl)-1-methy-1H-pyrazol-3-yl-oxy]-acetamide]
